A value given as a limit tells only on which side of the number the result lay.

As to `O=c1ccn(CCO)c(C(O)c2cccc(F)c2)c1OCc1ccccc1` (configuration not stated), the melting point is 194 to 196 °C.
With `CN(C)C(=O)Cc1nc(-c2ccncc2)nc2c1c1ccc(Cl)cc1n2C`, the melting point lay in the range of 231 to 232 °C.
The same measure for `NC(=O)C(c1ccccc1)(c1ccccc1)C1CCN(Cc2ccccc2)C1` (configuration not stated): 135 to 138 °C; for `O=C(O)CCCc1cc2cc(Cl)ccc2n1S(=O)(=O)c1ccc2nsnc2c1`: 172 to 175 °C.
In the case of `CC(C)(C)[C@@H]1O[C@@H](O)[C@@H]2[C@H]1C2(C)C` it was 126 °C; in that of `NCC(=O)Nc1sccc1C(=O)c1ccccc1Cl`, 156 to 158 °C; in that of `COc1ccc(C(C)(C)C)cc1NC(=O)Nc1ccc(-c2cnc3c(c2)NC(=O)CN3)c2ccccc12`, more than 230 °C.
The same measure for `CC(C)(C)NCC(O)COc1cccc2c1CNC(=O)N2` (configuration not stated): 204 to 205 °C; for `CNn1cccc1C(=O)c1ccccc1Cl`: 56 to 58 °C; for `Cn1nc(-c2ccc(S(C)(=O)=O)cc2)c2ccccc2c1=O`: 218 to 220 °C.
Compound `Cc1coc(-c2cccnc2)n1` gave a melting point of 40 °C.
The same measure for `O=C(Nc1ccn(C2OC(CO)C(O)C2(F)F)c(=O)n1)OCc1ccc([N+](=O)[O-])s1` (configuration not stated): 144 to 148 °C.
In the case of `CCOCOC1CCC2(C)C(C1)C(=O)CC1C2CCC2(C)C1CC1OC3(CCC(C)CO3)C(C)C12` (configuration not stated) it was 191 to 193 °C; in that of `Cc1cccc(C2=CCN(c3ccc(O)nn3)CC2)c1`, 179 °C; in that of `Cc1oc(-c2ccc(S(C)(=O)=O)cc2)c(Oc2ccc(F)cc2)c(=O)c1Cl`, 279 °C.
In the case of `Cc1[nH]c2ccc(CCN3CCCCC3)cc2c1C(=O)OCc1ccccc1` it was 159 to 161 °C; in that of `CN(C)Cc1cc(-c2c(-c3ccc(F)cc3)nn3c(Cl)cccc23)nc(NC2CCCC2)n1`, 68 to 75 °C; in that of `CCCNC(=O)N(Cc1ccc(Cl)cc1)C1CCCC1`, 103 to 105 °C.
In turn, `ClC(Cl)(Cl)c1nc(-c2ccccc2-c2ccc(CBr)cc2)no1` showed a melting point of 77 to 79 °C.
With `O=C(CC1CCN(CCCn2c(=O)[nH]c3ccccc32)CC1)c1cccc(Cl)c1`, the melting point turned out to be 160 °C.
In the case of `FC(F)(F)c1cccc(-c2ccn3cnnc3n2)c1` it was 202 to 203 °C; in that of `CCON=Cc1cc(-n2c(=O)cc(C(F)(F)F)n(C)c2=O)c(Cl)cc1Cl`, 140 to 143 °C; in that of `Cn1c(C(F)(F)F)cc(=O)n(-c2cc(S(=O)(=O)n3cccn3)c(Cl)cc2F)c1=O`, 172 °C.
The same measure for `Cn1c(COc2ccc(CC(OCc3ccc(F)cc3)C(=O)O)cc2)nc2ccc(Oc3ccc(C45CC6CC(CC(C6)C4)C5)cc3)cc21` (configuration not stated): 148 to 149 °C.
Compound `CN1C(=O)CC[C@]2(C)c3ccc(Sc4ncccc4[N+](=O)[O-])cc3CC[C@@H]12` displayed a melting point of 80 to 84 °C.
The same measure for `CCc1oc2ccccc2c1C(=O)c1ccc(OCC(=O)OC)cc1`: 72 to 74 °C; for `CC(=O)NCC#CCn1cncc1C`: 111 to 115 °C.
The same measure for `CCS(=O)(=O)CCC(=O)NCC(=O)N1Cc2ccccc2Oc2ccc(Cl)cc21`: 108 to 109 °C; for `CCn1cc(C(=O)O)c(=O)c2cc3oc(C(=O)O)cc3nc21`: more than 300 °C; for `COc1ccc(C(=O)c2c(Cl)cccc2Cl)c(C)c1`: 89 °C.
The same measure for `CC12CC(N3CCOCC3)C(O)CC1CCC1C2CCC2(C)C(O)C(N3CCCC3)CC12` (configuration not stated): 226 °C; for `O=C(NCCc1ccccn1)N(c1ccccc1)c1ccccc1`: 109 °C; for `O=C1c2ccccc2CCC1CNCC(O)c1cccc(O)c1` (configuration not stated): 140 to 143 °C.
The compound `CCc1c(-c2ccc(OCc3ccccc3)cc2)c2ccc3c(N)ccc1n32` registered a melting point of 123 to 127 °C.
The same measure for `O=C1Nc2ccccc2SC1CCCO` (configuration not stated): 59 to 60 °C.
The same measure for `COc1ccc(CN2C(=O)C3(COc4cc(OC)c(C#N)cc43)c3ccccc32)cc1` (configuration not stated): 207 to 208 °C.
The same measure for `CCOc1nnc(-c2ccc(C(F)(F)F)cc2)[nH]1`: 151 to 152 °C.
For `CN1C(=O)Nc2ccccc2C12NC(=O)N(COCc1ccccc1)C2=O` (configuration not stated), the melting point was in the range of 226 to 227 °C.
As for `FC(F)(F)c1cc(Cl)c(-n2ncc(-c3ncc[nH]3)n2)c(Cl)c1`, the melting point was 282 to 283 °C.
The same measure for `O=C(O)COc1ccc(SCc2ccc(OCc3ccc(CF)cc3)cc2)c2c1CCC2`: 153 to 155 °C; for `CCCc1nc(N(C)c2ccccc2)n2ncc(C(=O)c3ccccc3Cl)c2n1`: 149 to 151 °C; for `CCC(=O)Oc1cc(OC)cc(OC)c1C(=O)C=Cc1ccc(SC)cc1`: 108 °C.
In the case of `Cc1nc(N2CCc3ccccc3CC2)c(C#N)c(=O)n1N` it was 137 to 142 °C; in that of `Cc1oc(C2(C)CCCCC2)nc1C(=O)O`, 128 to 129 °C.
As to `CC(C)(C)OC(=O)CC[C@H](NC(=O)c1ccc(NCCc2ccccc2)cc1F)C(=O)OC(C)(C)C`, the melting point lay in the range of 71 to 72 °C.
The same measure for `CC(=O)Sc1ccc(C#Cc2ccc(C=O)cc2)cc1`: 128 to 129 °C; for `COc1cc(Nc2nc3ccnc(-c4cccc(N)c4)c3o2)cc(OC)c1OC`: 120 to 126 °C; for `O=C(O)Cc1c(Oc2ccccc2)cccc1Oc1ccccc1`: 32 to 38 °C.
In the case of `Cc1nc(Nc2ccccc2)sc1-c1ccnc(Nc2ccc(N3CCOCC3)cc2)n1` it was 290 to 291 °C.
The same measure for `CCOc1ccc(-c2ccc3c(c2)C=C(C(=O)Nc2ccc(CN(C)C4CCC5(CC4)OCCO5)cc2)CCS3(=O)=O)cc1`: 220 to 223 °C; for `O=c1[nH]c2ccc(S(=O)CCN3CCC(O)(Cc4ccccc4)CC3)cc2o1` (configuration not stated): 138 to 140 °C.
The compound `COc1ccc(C2SCCCS2)cc1OC` yielded a melting point of 99 to 101 °C.
In the case of `COCN1C(C)=C(C(=O)O)C(c2ccccc2C(F)(F)F)C(C(=O)OCOC(=O)C(C)(C)C)=C1C` (single isomer, unassigned; (+)) it was 69 to 70 °C; in that of `COc1ccc2c(c1)c(O)c(C(=O)Nc1ccccc1)c(=O)n2C`, 199 to 200 °C.
The same measure for `C=C(c1ccccc1)S(=O)(=O)c1ccc(C(C)(C)C)cc1`: 99 °C.
The same measure for `Clc1cccc2c3c([nH]c12)CCCC3`: 144 to 146 °C; for `CC(C)(C)OC(=O)NCC(=O)OCCCNc1ccc(O)c2c1C(=O)c1ccccc1C2=O`: 124 °C.
The compound `COc1ccccc1COc1ccc(-c2cc(O)c(SCCc3ccccc3)c(=O)o2)cc1` came in with a melting point of 138 to 139 °C.
The same measure for `O=C1c2ccccc2C(=O)N1CCNOCc1ccccc1`: 89 to 91 °C; for `CCN(CC)CCCOc1ccc(C(=O)c2oc3ccccc3c2-c2ccccc2)cc1`: 122 to 126 °C.
The same measure for `COC(=O)c1cc(I)ccc1Nc1ccccc1C(=O)O`: 230 to 232 °C; for `O=C1NCC(C(F)(F)C(F)(F)C(F)(F)F)C(=O)N1` (configuration not stated): 223 °C.
In the case of `CCOc1cc([N+](=O)[O-])c(C)c(C)c1[N+](=O)[O-]` it was 64 to 66 °C; in that of `CC(C)(S)CN1CCN(c2ccc(C#N)cc2)CC1`, 92 to 94 °C; in that of `COc1cc(C)c(C(=O)c2c(OC)ccc3ccccc23)c(OC)c1OC`, 72 °C.
The compound `O=C(O)C=CC(=O)NCCC(=O)O` yielded a melting point of 150 to 152 °C.
The same measure for `CC(C)c1cc(C(=O)Nc2ccc(C(=O)O)c(O)c2)oc1C(C)C`: 179 to 180 °C; for `O=c1c2cccc3c2n(c(=O)n1CC(O)CO)-c1cc(C(F)(F)F)ccc1S3=O` (configuration not stated): 224 to 225 °C.
On to `O=C1Nc2ccccc2SC1CCCCl` (configuration not stated), for which the melting point is 98 to 99 °C.
The same measure for `COc1ccccc1[Si](C)(C)COc1cc(C(C)(C)C)c(O)c(C(C)(C)C)c1`: 89 to 90 °C.
In the case of `O=C(Cc1ccccc1NS(=O)(=O)C(F)(F)F)N1CCOCC1` it was 95.5 to 97 °C.
In the case of `COc1cc(N)c(Cl)cc1C(=O)NCC12CCCN(CCC1)C2` it was 202 to 203 °C.
`CCOC(=O)CCc1c[nH]c2cnc(-n3cnnc3)cc12` gave a melting point of 215 to 218 °C.
For the compound `COc1cc(-c2ccc(O)c(C3(C)CCCCC3)c2)cc(CC2SC(N3CCOCC3)=NC2=O)c1OC` (configuration not stated), the melting point lay in the range of 210 to 213 °C.
Compound `CCOC(=O)c1cc(OC)c(C)cc1N` returned a melting point of 60 to 62 °C.
The same measure for `Cn1cc([N+](=O)[O-])nc1CBr`: 130 to 132 °C; for `O=C(NC1CC1c1ccccc1)C1Cc2ccccc2N1S(=O)(=O)c1ccc(-c2ccc(F)cc2)cc1` (configuration not stated): 80 °C.
In the case of `CC(C)(C)OC(=O)Cc1ccc(O)cc1` it was 95 to 96 °C; in that of `CCCCCCCCCCCCCCCCCNC(=O)OC[C@@H]1CO[C@@H](COC(=O)NCc2ccccn2)C1` (relative stereo), 52.7 to 54.8 °C; in that of `CC(C)(C)OC(=O)CC1=CCC(=O)Nc2ccccc21`, 136 to 138 °C.
Take `CN1C(=O)CNC(c2cccc(Cl)c2)c2cc(C(=O)c3ccc(Cl)cc3)ccc21` (configuration not stated): the melting point is 177 °C.
Compound `C#CCN(C(=O)C1CC1)c1cccc(-c2ccnc3c(C(=O)c4cccs4)cnn23)c1` had a melting point of 221 to 223 °C.
The same measure for `O=C1CN(c2ccc(Oc3ccccc3)cc2)C(=S)N1c1ccc([N+](=O)[O-])cc1`: 204 °C.
Compound `Cc1ccc(S(=O)(=O)N(CCc2cccs2)CC(=O)N[C@@H](Cc2ccccc2)C(=O)O)cc1` returned a melting point of more than 200 °C.
The same measure for `CCCCCCCCCC(=O)OC1=C(c2nnc(CCCCCCCCC)o2)N(C)S(=O)(=O)c2ccccc21`: 68 to 69 °C; for `CCCn1nc(C(=O)c2cccc(O)c2)c2cccc(C(F)(F)F)c21`: 118 °C; for `COc1ccc(OCCC#N)cc1`: 58 °C.

What is called melting point is the temperature, or range, at which the solid turns liquid.

Source of the values: a melting point compilation (Tetko et al.; mined from patent text by program, amines drawn as free bases though some values may be those of a salt).
